Results taken from the supplement of paper PMC4862054.

Tests used:
Conditions in all cases: incubation time: 72 h
[1] = system: CAL-148; test: normalised viability (% of control), CellTiter-Blue; higher = more viable cells (about 100 = DMSO control)
Protocol: (§1)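 DSRT, CellTiter-Blue viability, 72 h incubation. Signal is normalised to DMSO and benzethonium chloride controls. Value is the normalised response at dose 7.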

[2] = system: MDA-MB-453; test: as above
Protocol: as §1

[3] = system: HDQ-P1; test: as above
Protocol: as §1

[4] = system: CAL-85-1; test: as above
Protocol: as §1

[5] = system: DU-4475; test: as above
Protocol: as §1

[6] = system: CAL-51; test: as above
Protocol: as §1

[7] = system: BT-474; test: normalised response (% of control), CellTox Green; higher = less cell death (100 = DMSO, 0 = benzethonium chloride kill control)
Method in brief: (§2)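 Every value is a normalised signal taken at one concentration of a dilution series. Compound was placed in 384-well plates at 5 concentrations in 10-fold steps over a compound-specific 10,000-fold range, and 20 µl of breast cancer cell suspension was seeded onto it. After 72 h, CellTox Green fluorescence (485/520 nm) was measured first and CellTiter-Glo luminescence second, following 10 min at room temperature. Each plate was scaled to 0.1 % DMSO (100) and a positive kill control (0).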

[8] = system: MDA-MB-468; test: as above
Method in brief: as §2

[9] = system: CAL-51; test: as above
Method in brief: as §2

[10] = system: MFM-223; test: as above
Method in brief: as §2

Row | Structure (SMILES) | normalised viability [1] | normalised viability [2] | normalised viability [3] | normalised viability [4] | normalised viability [5] | normalised viability [6] | normalised response [7] | normalised response [8] | normalised response [9] | normalised response [10]
1 | CN1CCN(c2nc(C3=C(c4c[nH]c5ccccc45)C(=O)NC3=O)c3ccccc3n2)CC1 [Sotrastaurin] (1000 nM) | 111% | 89.7% | 100% | 124% | 95.8% | 74.3% | 98.8% | 215% | 105% | 102%
2 | Cn1nnc2c(C(N)=O)ncn2c1=O [Temozolomide] (1000 nM) | 113% | 93.6% | 100% | 104% | 101% | 89.7% | 96.5% | 106% | 87.6% | 52%
3 | CC/C(=C(\c1ccccc1)c1ccc(OCCN(C)C)cc1)c1ccccc1 [Tamoxifen] (1000 nM) | 124% | 105% | 98.7% | 101% | 112% | 78.4% | 101% | 148% | 99.5% | 74.9%
4 | Cc1cc2c(F)c(Oc3ncnn4cc(OC[C@@H](C)O)c(C)c34)ccc2[nH]1 [Brivanib] (1000 nM) |  |  |  |  |  |  | 97.9% | 99.9% | 101% | 98.6%
5 | CC/C(=C(\c1ccccc1)c1ccc(OCCN(C)C)cc1)c1ccccc1 [Tamoxifen] (10000 nM) |  |  |  |  |  |  | 9.58% | 7.06% | 105% | 88%
6 | CC(C)C(=O)Nc1ccc([N+](=O)[O-])c(C(F)(F)F)c1 [Flutamide] (10000 nM) |  |  |  |  |  |  | 92.6% | 124% | 100% | 89%
7 | CC(C)C[C@H](NC(=O)[C@H](CCc1ccccc1)NC(=O)CN1CCOCC1)C(=O)N[C@@H](Cc1ccccc1)C(=O)N[C@@H](CC(C)C)C(=O)[C@@]1(C)CO1 [Carfilzomib] (100 nM) | 2.75% | 12.1% | 0.52% | 3.69% | 1.6% | 10.2% | 61.4% | -95.8% | 6.93% | 32.8%
8 | O=NN(CCCl)C(=O)NC1CCCCC1 [Lomustine] (1000 nM) | 92.3% | 94.4% | 97.6% | 93.3% | 90.6% | 110% | 98.1% | 128% | 112% | 97%
9 | O=C(O)CC[C@H]1CC[C@@](c2cc(F)ccc2F)(S(=O)(=O)c2ccc(Cl)cc2)CC1 [MK-0752] (1000 nM) |  |  |  |  |  |  | 104% | 106% | 118% | 57.7%
10 | CC(C)C[C@H](NC(=O)[C@H](CCc1ccccc1)NC(=O)CN1CCOCC1)C(=O)N[C@@H](Cc1ccccc1)C(=O)N[C@@H](CC(C)C)C(=O)[C@@]1(C)CO1 [Carfilzomib] (1000 nM) |  |  |  |  |  |  | 45.7% | -84% | 15.1% | 55.2%
11 | NC1(c2ccc(-c3nc4ccn5c(=O)[nH]nc5c4cc3-c3ccccc3)cc2)CCC1 [MK-2206] (100 nM) | 91.5% | 84.4% | 82.9% | 86.7% | 92.7% | 100% | 103% | 116% | 117% | 92%
12 | NC(=O)c1cccc2cn(-c3ccc([C@@H]4CCCNC4)cc3)nc12 [MK-4827] (1000 nM) | 87.4% | 93.3% | 91.8% | 93% | 78.9% | 90.8% | 101% | 110% | 82.8% | 101%
13 | Nc1nc(Cl)nc2c1ncn2[C@@H]1O[C@H](CO)[C@@H](O)[C@@H]1F [Clofarabine] (10000 nM) |  |  |  |  |  |  | 105% | 73.1% | 40.6% | 102%
14 | C[C@@H](C(=O)O)c1ccc(-c2ccccc2)c(F)c1 [Tarenflurbil] (1000 nM) | 92.5% | 87.7% | 83.2% | 90% | 108% | 109% | 97.1% | 112% | 114% | 87.5%
15 | CO[C@H]1C[C@@H]2CC[C@@H](C)[C@@](O)(O2)C(=O)C(=O)N2CCCC[C@H]2C(=O)O[C@H]([C@H](C)C[C@@H]2CC[C@@H](O)[C@H](OC)C2)CC(=O)[C@H](C)/C=C(\C)[C@@H](O)[C@@H](OC)C(=O)[C@H](C)C[C@H](C)/C=C/C=C/C=C/1C [Sirolimus] (100 nM) | 48.1% | 27.9% | 70.6% | 52.6% | 56.5% | 29.2% | 103% | 141% | 99.1% | 103%
16 | CCCCCOC(=O)Nc1nc(=O)n([C@@H]2O[C@H](C)[C@@H](O)[C@H]2O)cc1F [Capecitabine] (10000 nM) |  |  |  |  |  |  | 97.2% | 100% | 99.4% | 
17 | O=NN(CCCl)C(=O)NC1CCCCC1 [Lomustine] (10000 nM) |  |  |  |  |  |  | 95.2% | 77.9% | 108% | 103%
